In US20200368288A1, “Hierarchic Neural Microphysiological System for Brain Function and Disorders” (The Trustees of Columbia University in the City of New York, priority 2018, published 2020):
Where two headings read alike, the source gives them in different places.

Key:
Setd1a+/− MoNNets = experiment: Rescue of Setd1a+/- MoNNet network pathophysiology by LSD1 inhibition, Ca2+ imaging before and after treatment; type: cell-based, mice
From the text: Taking advantage of MoNNet properties, effective in vitro models of SCZ-associated network pathophysiology (SCZ-MoNNets) were developed. SCZ is characterized by psychosis, cognitive dysfunction and a broad spectrum of complex behavioral abnormalities (Clementz et al., 2016). Several recent studies in animal models have investigated the underlying circuit pathophysiology, identifying deficits in activity synchrony and degraded ensembles (Fenelon et al., 2013; Hamm et al., 2017; Hamm et al., 2020; Marissal et al., 2018; Sigurdsson et al., 2010; Zaremba et al., 2017). Therefore, the MoNNet approach provides a well suited system to develop quantitative in vitro models of SCZ-like network function pathophysiology. We developed and characterized MoNNet preparations (SCZ-MoNNets) from two well-studied genetic models—Setd1a+/− and Df(16)A+/−, which recapitulate SCZ-related cognitive and circuitry pathophysiology (Fenelon et al., 2013; Mukai et al., 2019). […] The lower-level deviations in molecular, cellular and synaptic pathways underlying the observed alterations in network states remain to be determined and may be different for each mutation.
Hippocampal neuronal cultures were generated from E17 to E18 embryos by building upon standard cell culture techniques, as follows. Pregnant mice were anesthetized under isoflurane, and euthanized by cervical dislocation. Hippocampus were dissected in Hibernate E (Gibco) iced cold media, and incubated in 0.25% Trypsin-EDTA (Gibco) at 37° C. for […]., followed by […] DNAse I (1 μg/ml; Sigma) incubation at room temperature. Mechanical dissociation of dissected hippocampus was performed by repeated pipetting with a fire-polished glass Pasteur pipet until a homogenous cell suspension was obtained. Cell viability was determined by Trypan Blue exclusion assay. Cell solution was then centrifuged at 150 g for […], and the supernatant was removed. Resulting cell pellet was resuspended in the culture media containing Neurobasal media, 2% B27, 0.5 mM Glutamate and 1% Penicillin/Streptomycin (Gibco). Cells were infected with AAV1.Syn.GCaMP6f.WPRE.SV40 virus ((Chen et al., 2013); Pennsylvania Vector Core, Cat #:AV-1-PV2822). For single spheroid cultures, 2% agarose 96 wells (400 μm diameter) micro-molds were created by using custom casts fabricated by 3D printing (UV-resin; Formlabs 3D printer). The agarose micro molds were equilibrated in the culture medium over a 24 h period prior to plating. […]
Imaging was performed using a wide-field fluorescence microscope (Leica M165FC) equipped with a long-pass GFP filter set (Leica filter set ET GFP M205FA/M165FC), 1.6× Plan Apo objective, 3.2× zoom and sCMOS camera (Hamamatsu ORCA-Flash 4.0). Time-lapse videos were recorded at 30 Hz for ˜4.5 min at 37° C. […]

NNet preparation = experiment: Modeling epileptic seizures with NNet (4-AP local injection, picrotoxin addition); type: cell-based
Method: 4-AP, a commonly used seizure inducing compound, was injected in a specific neurosphere of an NNet preparation. […] As shown in the magnified view (top row, third) these peaks are maintained during the time. […] In FIG. 6 the colored maps (bottom) show the spatial progression of the seizure waves in three different bouts (labeled as Epi. Events #1, #2, and #3). The directionality of seizure spread is maintained constant from bottom-left to top-right.

MoNNet neurons = experiment: Whole cell electrophysiology recordings in MoNNet, synaptic transmission across spheroids; type: cell-based, mice
Method: Whole cell recordings were performed as described previously (Crabtree et al., 2016; Crabtree et al., 2017), using borosilicate glass pipettes (initial resistance 3-5.5 MS2) which were filled with an intracellular solution containing: K methanesulfonate 125 mM, NaCl 10 mM, CaCl2) 1 mM, MgCl2 1 mM, HEPES 10 mM, EGTA 0.1 mM, MgATP 5 mM, NaGTP 0.5 mM. The pH was adjusted to 7.2 with KOH. Spontaneous synaptic events were assessed at −70 mV (presumptive glutamatergic) and at 0 mV (presumptive GABAergic). Excitatory and inhibitory evoked synaptic responses were assessed as follows. Evoked synaptic responses across spheroid units were elicited with electric stimulation applied with a concentric bipolar stimulating electrode (tip diameter 0.125 mm, FHC, Bowdinham, Me.) positioned on a spheroid >250 μm away from the spheroid containing the recorded neuron. The stimulus was set to 10V, a duration of 100 μs and applied at 10 Hz. […] Neurons were then held in voltage-clamp at 0 mV to assess evoked inhibitory synaptic responses. For assessing neuronal excitability in current-step, action potential firing was recorded in response to incremental (20 pA steps) depolarizing current injections (500 ms duration). Bridge balance of series resistance was employed and recordings with series resistance >20 MΩ were rejected. For current-step assays, resting membrane potential was adjusted to ˜−70 mV by injection of a small standing current. For voltage steps, cells were held at −70 mV, and 10 mV steps were applied ranging from −100 mV to 50 mV. Series resistance-related errors were partially corrected by using 70% prediction and 70% series resistance compensation.

LSD1 = LSD1 (Mus musculus, UniProt Q6ZQ88); details: Mukai et al., 2019; cited from earlier work
NNet preparations = experiment: Chronic ketamine treatment NNet model of schizophrenia pathophysiology, calcium imaging; details: ketamine 10 μM every 24 hours vs saline control; imaging before and 2 days after
[1] = 2-day treatment, TCP 600 nM, ORY-1001 0.6-0.9 nM
[2] = picrotoxin added after 4-AP local injection

## N[C@@H]1C[C@H]1c1ccccc1 (racemic) [TCP, Tranylcypromine]
Setd1a+/− MoNNets
  ensembles stability: partial rescue
  network synchrony: partial rescue

## Nc1ccncc1 [4-AP]
NNet preparation; local injection in a specific neurosphere
  seizure peaks: typical high seizure peaks

## N#Cc1cc2[nH]c(=O)c(=O)[nH]c2cc1[N+](=O)[O-] [CNQX]
MoNNet neurons; CNQX 10 μM blockade of glutamatergic transmission, cell held at 0 mV
  evoked inhibitory synaptic transmission across spheroids: robust evoked inhibitory synaptic transmission
MoNNet neurons; CNQX 10 μM washed in with ACSF, voltage-clamp at −70 mV, 10 Hz stimulation of neighboring spheroid
  evoked excitatory synaptic responses: completely ablated
MoNNet neurons; CNQX 10 μM, neuron held at 0 mV
  spontaneous inhibitory synaptic events: reduction

## N[C@H]1CC[C@H](N[C@@H]2C[C@H]2c2ccccc2)CC1 [ORY-1001]
LSD1
  cellular and behavioral defects: effective in partial rescue
Setd1a+/− MoNNets; [1]
  ensembles stability: partial rescue
  network synchrony: partial rescue

## CNC1(c2ccccc2Cl)CCCCC1=O (stereo not drawn) [ketamine]
NNet preparations
  correlation among neurosphere units of NNet: decreased

## picrotoxin
NNet preparation; [2]
  directionality of seizure spread: directionality becomes random
  frequency of number of events: increased frequency of number of events
